Test results taken from ChEMBL document CHEMBL1671626, “In vitro profiling of ceftaroline against a collection of recent bacterial clinical isolates from across the United States” (2008).
≈ marks a conversion by molar mass, not a printed value.

How the values were obtained:
Assay type in all cases: functional
Staphylococcus aureus [1] = assay: Antibacterial activity against methicillin-susceptible Staphylococcus aureus by CLSI M7-A7 broth microdilution method
Staphylococcus aureus [2] = assay: Antibacterial activity against methicillin-susceptible Staphylococcus aureus assessed as resistant isolates by CLSI M7-A7 broth microdilution method
Staphylococcus aureus [3] = assay: Antibacterial activity against methicillin-resistant Staphylococcus aureus assessed as resistant isolates by CLSI M7-A7 broth microdilution method
Staphylococcus aureus [4] = assay: Antibacterial activity against coagulase-negative and oxacillin-susceptible Staphylococcus aureus assessed as resistant isolates by CLSI M7-A7 broth microdilution method
Staphylococcus aureus [5] = assay: Antibacterial activity against coagulase-negative and oxacillin-resistant Staphylococcus aureus by CLSI M7-A7 broth microdilution method
Staphylococcus aureus [6] = assay: Antibacterial activity against coagulase-negative and oxacillin-resistant Staphylococcus aureus assessed as susceptible isolates by CLSI M7-A7 broth microdilution method
Streptococcus pneumoniae [7] = assay: Antibacterial activity against penicillin-susceptible Streptococcus pneumoniae assessed as susceptible isolates by CLSI M7-A7 broth microdilution method
Streptococcus pneumoniae [8] = assay: Antibacterial activity against penicillin-resistant Streptococcus pneumoniae by CLSI M7-A7 broth microdilution method
Streptococcus pneumoniae [9] = assay: Antibacterial activity against penicillin-resistant Streptococcus pneumoniae assessed as resistant isolates by CLSI M7-A7 broth microdilution method
Streptococcus pyogenes = assay: Antibacterial activity against erythromycin-nonsusceptible Streptococcus pyogenes by CLSI M7-A7 broth microdilution method
Streptococcus agalactiae [10] = assay: Antibacterial activity against erythromycin-susceptible Streptococcus agalactiae by CLSI M7-A7 broth microdilution method
Streptococcus agalactiae [11] = assay: Antibacterial activity against erythromycin-nonsusceptible Streptococcus agalactiae by CLSI M7-A7 broth microdilution method
Streptococcus viridans [12] = assay: Antibacterial activity against penicillin-susceptible Streptococcus viridans by CLSI M7-A7 broth microdilution method
Streptococcus viridans [13] = assay: Antibacterial activity against penicillin-nonsusceptible Streptococcus viridans by CLSI M7-A7 broth microdilution method
Enterobacteriaceae [14] = assay: Antibacterial activity against ceftazidime-susceptible Enterobacteriaceae by CLSI M7-A7 broth microdilution method
Enterobacteriaceae [15] = assay: Antibacterial activity against ceftazidime-susceptible Enterobacteriaceae assessed as susceptible isolates by CLSI M7-A7 broth microdilution method
Enterobacteriaceae [16] = assay: Antibacterial activity against ceftazidime-susceptible Enterobacteriaceae assessed as resistant isolates by CLSI M7-A7 broth microdilution method
Enterobacteriaceae [17] = assay: Antibacterial activity against ceftazidime-nonsusceptible Enterobacteriaceae assessed as susceptible isolates by CLSI M7-A7 broth microdilution method
Enterobacteriaceae [18] = assay: Antibacterial activity against ceftazidime-nonsusceptible Enterobacteriaceae assessed as resistant isolates by CLSI M7-A7 broth microdilution method
Citrobacter freundii [19] = assay: Antibacterial activity against ceftazidime-nonsusceptible Citrobacter freundii by CLSI M7-A7 broth microdilution method
Citrobacter freundii [20] = assay: Antibacterial activity against ceftazidime-nonsusceptible Citrobacter freundii assessed as susceptible isolates by CLSI M7-A7 broth microdilution method
Enterobacter cloacae [21] = assay: Antibacterial activity against ceftazidime-susceptible Enterobacter cloacae assessed as susceptible isolates by CLSI M7-A7 broth microdilution method
Enterobacter cloacae [22] = assay: Antibacterial activity against ceftazidime-susceptible Enterobacter cloacae assessed as resistant isolates by CLSI M7-A7 broth microdilution method
Enterobacter cloacae [23] = assay: Antibacterial activity against ceftazidime-nonsusceptible Enterobacter cloacae assessed as resistant isolates by CLSI M7-A7 broth microdilution method
Escherichia coli [24] = assay: Antibacterial activity against ceftazidime-susceptible Escherichia coli assessed as susceptible isolates by CLSI M7-A7 broth microdilution method
Escherichia coli [25] = assay: Antibacterial activity against ceftazidime-susceptible Escherichia coli assessed as resistant isolates by CLSI M7-A7 broth microdilution method
Escherichia coli [26] = assay: Antibacterial activity against ceftazidime-nonsusceptible Escherichia coli by CLSI M7-A7 broth microdilution method
Escherichia coli [27] = assay: Antibacterial activity against ceftazidime-nonsusceptible Escherichia coli assessed as resistant isolates by CLSI M7-A7 broth microdilution method
Klebsiella pneumoniae [28] = assay: Antibacterial activity against ceftazidime-susceptible Klebsiella pneumoniae assessed as susceptible isolates by CLSI M7-A7 broth microdilution method
Klebsiella pneumoniae [29] = assay: Antibacterial activity against ceftazidime-susceptible Klebsiella pneumoniae assessed as resistant isolates by CLSI M7-A7 broth microdilution method
Klebsiella pneumoniae [30] = assay: Antibacterial activity against ceftazidime-nonsusceptible Klebsiella pneumoniae by CLSI M7-A7 broth microdilution method
Proteus mirabilis [31] = assay: Antibacterial activity against ceftazidime-susceptible Proteus mirabilis by CLSI M7-A7 broth microdilution method
Proteus mirabilis [32] = assay: Antibacterial activity against ceftazidime-susceptible Proteus mirabilis assessed as resistant isolates by CLSI M7-A7 broth microdilution method
Acinetobacter [33] = assay: Antibacterial activity against multidrug-resistant Acinetobacter by CLSI M7-A7 broth microdilution method
Acinetobacter [34] = assay: Antibacterial activity against multidrug-resistant Acinetobacter assessed as susceptible isolates by CLSI M7-A7 broth microdilution method
Acinetobacter [35] = assay: Antibacterial activity against multidrug-resistant Acinetobacter assessed as resistant isolates by CLSI M7-A7 broth microdilution method
Acinetobacter [36] = assay: Antibacterial activity against imipenem-susceptible Acinetobacter by CLSI M7-A7 broth microdilution method
Acinetobacter [37] = assay: Antibacterial activity against imipenem-susceptible Acinetobacter assessed as susceptible isolates by CLSI M7-A7 broth microdilution method
Haemophilus influenzae [38] = assay: Antibacterial activity against beta lactamase-negative Haemophilus influenzae by CLSI M7-A7 broth microdilution method
Haemophilus influenzae [39] = assay: Antibacterial activity against beta lactamase-negative Haemophilus influenzae assessed as susceptible isolates by CLSI M7-A7 broth microdilution method
Haemophilus influenzae [40] = assay: Antibacterial activity against beta lactamase-positive Haemophilus influenzae by CLSI M7-A7 broth microdilution method
Haemophilus influenzae [41] = assay: Antibacterial activity against beta lactamase-positive Haemophilus influenzae assessed as susceptible isolates by CLSI M7-A7 broth microdilution method
Moraxella catarrhalis = assay: Antibacterial activity against beta lactamase-positive Moraxella catarrhalis by CLSI M7-A7 broth microdilution method
Providencia sp. [42] = assay: Antibacterial activity against ceftazidime-susceptible Providencia sp. assessed as susceptible isolates by CLSI M7-A7 broth microdilution method
Providencia sp. [43] = assay: Antibacterial activity against ceftazidime-susceptible Providencia sp. assessed as resistant isolates by CLSI M7-A7 broth microdilution method

CO/N=C(\C(=O)N[C@@H]1C(=O)N2C(C(=O)O)=C(CSc3nc(=O)c(O)nn3C)CS[C@H]12)c1csc(N)n1 [CEFTRIAXONE]
MIC50 (Staphylococcus aureus [1]): 2 µg/mL (≈ 3.61 µM)
MIC90 (Staphylococcus aureus [1]): 4 µg/mL (≈ 7.21 µM)
Activity (Staphylococcus aureus [2]): 0.3%
Activity (Staphylococcus aureus [3]): 33.1%
Activity (Staphylococcus aureus [4]): 0%
MIC50 (Staphylococcus aureus [5]): 16 µg/mL (≈ 28.9 µM)
MIC90 (Staphylococcus aureus [5]): > 32 µg/mL
Activity (Staphylococcus aureus [6]): 27.1%
Activity (Streptococcus pneumoniae [7]): 100%
MIC50 (Streptococcus pneumoniae [8]): 1 µg/mL (≈ 1.8 µM)
MIC90 (Streptococcus pneumoniae [8]): 2 µg/mL (≈ 3.61 µM)
Activity (Streptococcus pneumoniae [9]): 6.8%
MIC50 (Streptococcus pyogenes): 0.03 µg/mL (≈ 0.0541 µM)
MIC90 (Streptococcus pyogenes): 0.12 µg/mL (≈ 0.216 µM)
MIC50 (Streptococcus agalactiae [10]): 0.06 µg/mL (≈ 0.108 µM)
MIC90 (Streptococcus agalactiae [10]): 0.12 µg/mL (≈ 0.216 µM)
MIC50 (Streptococcus agalactiae [11]): 0.06 µg/mL (≈ 0.108 µM)
MIC90 (Streptococcus agalactiae [11]): 0.12 µg/mL (≈ 0.216 µM)
MIC50 (Streptococcus viridans [12]): 0.06 µg/mL (≈ 0.108 µM)
MIC90 (Streptococcus viridans [12]): 0.25 µg/mL (≈ 0.451 µM)
MIC50 (Streptococcus viridans [13]): 2 µg/mL (≈ 3.61 µM)
MIC90 (Streptococcus viridans [13]): 8 µg/mL (≈ 14.4 µM)
MIC50 (Enterobacteriaceae [14]): ≤ 0.06 µg/mL
MIC90 (Enterobacteriaceae [14]): 0.25 µg/mL (≈ 0.451 µM)
Activity (Enterobacteriaceae [15]): 98%
Activity (Enterobacteriaceae [16]): 0%
Activity (Enterobacteriaceae [17]): 13.2%
Activity (Enterobacteriaceae [18]): 0%
MIC50 (Citrobacter freundii [19]): > 16 µg/mL
MIC90 (Citrobacter freundii [19]): > 16 µg/mL
Activity (Citrobacter freundii [20]): 6.1%
Activity (Enterobacter cloacae [21]): 98%
Activity (Enterobacter cloacae [22]): 0%
Activity (Enterobacter cloacae [23]): 0%
Activity (Escherichia coli [24]): 97.4%
Activity (Escherichia coli [25]): 0%
MIC50 (Escherichia coli [26]): > 16 µg/mL
MIC90 (Escherichia coli [26]): > 16 µg/mL
Activity (Escherichia coli [27]): 0%
Activity (Klebsiella pneumoniae [28]): 99.5%
Activity (Klebsiella pneumoniae [29]): 0%
MIC50 (Klebsiella pneumoniae [30]): > 16 µg/mL
MIC90 (Klebsiella pneumoniae [30]): > 16 µg/mL
MIC50 (Proteus mirabilis [31]): ≤ 0.06 µg/mL
MIC90 (Proteus mirabilis [31]): 0.12 µg/mL (≈ 0.216 µM)
Activity (Proteus mirabilis [32]): 0%
MIC (Acinetobacter [33]): > 16 µg/mL
MIC50 (Acinetobacter [33]): > 16 µg/mL
Activity (Acinetobacter [34]): 0%
Activity (Acinetobacter [35]): 0%
MIC50 (Acinetobacter [36]): 16 µg/mL (≈ 28.9 µM)
MIC90 (Acinetobacter [36]): > 16 µg/mL
Activity (Acinetobacter [37]): 44.7%
MIC (Haemophilus influenzae [38]): ≤ 0.06 µg/mL
MIC50 (Haemophilus influenzae [38]): ≤ 0.06 µg/mL
MIC90 (Haemophilus influenzae [38]): ≤ 0.06 µg/mL
Activity (Haemophilus influenzae [39]): 100%
MIC (Haemophilus influenzae [40]): ≤ 0.06 µg/mL
MIC50 (Haemophilus influenzae [40]): ≤ 0.06 µg/mL
MIC90 (Haemophilus influenzae [40]): ≤ 0.06 µg/mL
Activity (Haemophilus influenzae [41]): 100%
MIC (Moraxella catarrhalis): ≤ 0.25 µg/mL
MIC50 (Moraxella catarrhalis): ≤ 0.25 µg/mL
MIC90 (Moraxella catarrhalis): 1 µg/mL (≈ 1.8 µM)
Activity (Providencia sp. [42]): 100%
Activity (Providencia sp. [43]): 0%
